In brackets after ≈: the same amount, converted by molar mass. Like-named read-outs stand apart in the source and are kept apart here. Numbered stars: 1 amine (or outer) side, 2 acyl side, 3 side chain; on linkers, the order of the positions; unused ones are H or OH. Square brackets hold non-standard residues; d marks the D form. Peptide text beside a SMILES is read from it. N(tridecyl)Gly = CCCCCCCCCCCCCNCC(=O)O; X1 = CC(c1ccccc1)N(CC(=O)[*:2])[*:1]; NFurfurylGly = O=C(O)CNCc1ccco1; Gly(N(CH2)3NH2) = NCCCNCC(=O)O; Nphe = O=C(O)CNCc1ccccc1; NPrGly = CCCNCC(=O)O; Nlys = NCCCCNCC(=O)O
Legend:
[1] = tested on: Enterococcus faecalis ATCC 29212; type: cell-based; settings: 24 h, CAMHB
Source text: (§1) This screening led to the discovery of RMG9-11 (FIG. 2C). The minimum inhibitory concentration (MIC) of resynthesized RMG9-11 was initially determined against C. albicans, C. neoformans, and the ESKAPE bacteria via CSLI guidelines (CLSI. Methods for Dilution Antimicrobial Susceptibility Tests for Bacteria That Grow Aerobically, 11th Edition. Clinical and Laboratory Standards Institute (2018); CLSI. Reference method for broth dilution antifungal susceptibility testing of yeasts; approved standard-third edition; CLSI document M27-A3. Clinical and Laboratory Standards Institute (2008)). […] C. albicans clinical isolates include a reference strain (M1), fluconazole susceptible strains (M4 and M6), and fluconazole resistant strains (M2, M3, M5, and M7). ATCC 64124 is multidrug resistant C. albicans strain that is resistant to amphotericin B, fluconazole, caspofungin, and flucytosine. All MICs were performed under CSLI guidelines in triplicate on at least three different days.
(§2) The minimum inhibitory concentration (MIC) of peptoids against the ESKAPE bacteria (Enterococcus faecium ATCC 6569; Staphylococcus aureus ATCC 29213; Klebsiella pneumoniae ATCC 13883; Acinetobacter baumanii ATCC 19606; Pseudomonas aeruginosa ATCC 25619; Enterococcus faecalis ATCC 29212; and Escherichia coli ATCC 25922) was determined following CLSI guidelines (CLSI. Methods for Dilution Antimicrobial Susceptibility Tests for Bacteria That Grow Aerobically, 11th Edition. Clinical and Laboratory Standards Institute, 2018). The MIC against Mycobacterium smegmatis was also determined following CLSI guidelines (Woods, G. L. et al. Susceptibility Testing of Mycobacteria, Nocardiae, and Other Aerobic Actinomycetes, 2nd edition. (2011)). Colonies picked from streaked tryptic soy agar plates were added to tryptic soy broth (TSB) to achieve a turbidity of OD600=0.08-0.15. Inoculant was diluted 1:200 into cation adjust Mueller Hinton Broth (CAMHB) and 90 μL was plated into each well of a 96 well black-wall plate. 2-fold serial dilutions of 10× peptoid (10 μL) were added to each well in triplicate and incubated at 37° C. for 24 hours for the ESKAPE bacteria and 72 hours for M. smegmatis. Tetracycline (20 μg/mL) was used as a positive control with DI water was used as a vehicle control. Following incubation for the ESKAPE bacteria, PRESTO BLUE (10 μL) was added to each well and incubated at 37° C. for one hour before measuring fluorescence on a SPECTRAMAX M5 plate reader (Ex. 555 nm; Em. 585 nm). Following incubation for M. smegmatis, wells were scored following CLSI guidelines to determine MIC. This assay was repeated three times on separate days.

[2] = tested on: Escherichia coli ATCC 25922; type: cell-based; settings: 24 h, CAMHB
Source text: as §1, §2

[3] = tested on: C. tropicalis; type: cell-based, Candida tropicalis
[4] = tested on: C. albicans; type: cell-based, Candida albicans
Source text: One of the most serious crises facing both new and existing antimicrobial compounds is the rapid development of resistance by pathogens to that compound, rendering it useless. This has been an issue observed with all major commercially available antimicrobial drugs and is an increasingly prevalent issue with antifungal drugs (Clatworthy et al., Nat. Chem. Biol. 3, 541-548 (2007); Wiederhold et al., Infect. Drug Resist. 10, 249-259 (2017)). The ability of C. albicans to gain resistance against RMG9-11 was evaluated using two techniques; serial and single passage. Ching et al. described a method for single passage assessment of gain of resistance, which was used here with RMG9-11 (Ching et al., Sci. Rep. 10, 8754 (2020)). Briefly, a single colony of C. albicans was incubated overnight in RPMI-MOPS. Fungal cultures were then incubated for either 24 or 48 hours with concentrations of RMG9-11 ranging from 0 to 80% MIC. […]
Gain of resistance to RMG9-11 by C. albicans was determined using a serial passage assay following previously published methods.43 Single colonies of C. albicans from a frozen stock streak plate were added to a saline solution (0.85%) to achieve an OD530=0.15-0.25. […]

[5] = tested on: C. neoformans; type: cell-based, Cryptococcus neoformans
Source text: as §1
The minimum inhibitory concentration (MIC) of peptoids against fungal pathogens C. albicans and C. neoformans was determined following CLSI guidelines (Reference method for broth dilution antifungal susceptibility testing of yeasts; approved standard-third edition; CLSI document M27-A3.” CLSI. 2008.). Colonies were transferred from a streaked YPD plate to 0.85% saline to reach an OD530 between 0.18 and 0.25. This inoculant was diluted 1:100 into RPMI-MOPS and then further diluted 1:20 into RPMI-MOPS. 198 μL of inoculant was seeded into each well of a 96 well black-walled plate. 2-fold serial dilutions of 100× peptoid solutions were prepared in water and 2 μL of peptoid were added to each well in triplicate. […] MIC was defined as the lowest concentration of compound preventing fungal growth. This assay was repeated 3 times on separate days with each compound.

## CCCCCCCCCCCCCNCC(=O)N(CCC)CC(=O)N(CC(=O)N(CCCCN)CC(=O)N(CC(=O)N(CC(=O)N(CCCN)CC(N)=O)Cc1ccccc1)Cc1ccco1)C(C)c1ccccc1 (stereo not shown) [RMG9-11] (H-[N(tridecyl)Gly][NPrGly][X1][Nlys][NFurfurylGly][Nphe][Gly(N(CH2)3NH2)]-NH2)
[1]
  MIC E. faecalis: 6.25 µg/mL (≈ 5.99 µM)
[2]
  MIC E. coli: 6.25 µg/mL (≈ 5.99 µM)
[3]
  MIC C. tropicalis: 3.13 µg/mL (≈ 3 µM)
[4]; Treated: serial passage with 1 to 25% MIC RMG9-11
  Serial Passage MIC: 6.25 µg/mL
[4]; Untreated C. albicans
  Serial Passage MIC: 6.25 µg/mL
[5]
  improvement of MIC C. neoformans vs C. albicans: 2 fold
[5]; 72 h
  MIC C. neoformans: 3.13 µg/mL (≈ 3 µM)

— patent US20240391889A1, “ANTIMICROBIAL COMPOUNDS AND THE METHODS OF USE” (priority 2021, published 2024)
